Measured values reported in article PMC5908784, “Extracellular loops 2 and 3 of the calcitonin receptor selectively modify agonist binding and efficacy” (Biochemical Pharmacology, 2018).
Residue numbers refer to the chain shown, from its start. Like-named read-outs stand apart in the source and are kept apart here. Where a SMILES comes first, the peptide text is derived from it. Bridges are numbered along the chain shown (N, C = ends).

Experiments:
Test in all cases: IP1 accumulation
Format in all cases: cell-based
hCTR F285A = molecular target: T1, hCTR F285A (Homo sapiens, UniProt P30988, F285A); details: mean ± S.E.M.; for Emax: IP1 maximal response, SEM
T1 construct: expressed in transfected cells
T1 sequence (P30988 25-474 F285A): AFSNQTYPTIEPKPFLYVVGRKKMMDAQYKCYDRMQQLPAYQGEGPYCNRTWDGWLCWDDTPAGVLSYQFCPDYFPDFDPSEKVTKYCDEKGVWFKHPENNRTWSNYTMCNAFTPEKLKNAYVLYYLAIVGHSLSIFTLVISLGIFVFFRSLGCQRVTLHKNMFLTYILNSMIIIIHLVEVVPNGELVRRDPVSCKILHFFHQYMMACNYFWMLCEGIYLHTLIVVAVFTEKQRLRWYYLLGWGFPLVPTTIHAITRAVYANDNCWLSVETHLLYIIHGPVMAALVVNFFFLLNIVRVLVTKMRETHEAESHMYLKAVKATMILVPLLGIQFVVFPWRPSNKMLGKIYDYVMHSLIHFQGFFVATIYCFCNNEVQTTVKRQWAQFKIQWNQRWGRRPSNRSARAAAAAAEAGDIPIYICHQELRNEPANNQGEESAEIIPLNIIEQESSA
Method in brief: (§1)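 HTRF IP-One readout of IP1 after 60 min ligand stimulation (LiCl present), cells seeded overnight. Normalized to 100 μM ATP max response. EC50/Emax via 3-parameter logistic curve fit.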

hCTR L297A = molecular target: T2, hCTR L297A (Homo sapiens, UniProt P30988, L297A); details: mean ± S.E.M.; for Emax: IP1 maximal response, SEM
T2 construct: c-Myc (N); expressed in transfected cells
T2 sequence (P30988 25-474 L297A): T1 sequence (P30988 25-474 F285A) with A261F, L273A
Method in brief: as §1

hCTR L298A = molecular target: T3, hCTR L298A (Homo sapiens, UniProt P30988, L298A); details: for Emax: read-out: Emax (% WT), SEM
T3 construct: c-Myc (N); expressed in transfected cells
T3 sequence (P30988 25-474 L298A): T1 sequence (P30988 25-474 F285A) with A261F, L274A
Method in brief: as §1

hCTR S364A = molecular target: T4, hCTR S364A (Homo sapiens, UniProt P30988, S364A); details: mean ± S.E.M.; for Emax: IP1 maximal response, SEM
T4 construct: c-Myc (N); expressed in transfected cells
T4 sequence (P30988 25-474 S364A): T1 sequence (P30988 25-474 F285A) with A261F, S340A
Method in brief: as §1

hCTR WT = molecular target: T5, hCTR WT (Homo sapiens, UniProt P30988); details: for Emax: read-out: Emax (% WT), SEM
T5 construct: expressed in transfected cells
T5 sequence (P30988 25-474): T1 sequence (P30988 25-474 F285A) with A261F
Method in brief: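 Concentration-response curves were fitted to a 3-parameter logistic model to estimate EC50 and Emax. Cells had been exposed to ligand for 60 min with LiCl, and lysate IP1 determined by HTRF, with normalization to 100 μM ATP.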

[1] = IP1, CV1-FlpIn cells, 60 min, LiCl

Row | EC50 (hCTR F285A; [1]) | EC50 (hCTR L297A; [1]) | EC50 (hCTR L298A; L298A, IP1, CV1-FlpIn cells, 60 min, LiCl, mean ± S.E.M.) | Emax (hCTR L298A; L298A, IP1 maximal response, mean ± S.E.M.) | EC50 (hCTR S364A; [1]) | EC50 (hCTR WT; WT, IP1, CV1-FlpIn cells, 60 min, LiCl, mean ± S.E.M.) | Emax (hCTR WT; WT, IP1 maximal response, mean ± S.E.M.) | Structure (SMILES) | Emax (hCTR F285A) | Emax (hCTR L297A) | Emax (hCTR L298A) | Emax (hCTR S364A) | Emax (hCTR WT)
1 |  |  |  |  |  |  |  | CC[C@H](C)[C@H](NC(=O)[C@H](C)NC(=O)[C@@H](NC(=O)[C@H](CCC(N)=O)NC(=O)[C@@H]1CCCN1C(=O)[C@H](Cc1ccccc1)NC(=O)[C@@H](NC(=O)[C@H](Cc1c[nH]cn1)NC(=O)[C@H](Cc1ccccc1)NC(=O)[C@H](CCCCN)NC(=O)[C@H](CC(N)=O)NC(=O)[C@H](Cc1ccccc1)NC(=O)[C@H](CC(=O)O)NC(=O)[C@H](CCC(N)=O)NC(=O)[C@@H](NC(=O)[C@H](Cc1ccc(O)cc1)NC(=O)[C@@H](NC(=O)CNC(=O)[C@H](CC(C)C)NC(=O)[C@H](CCSC)NC(=O)[C@@H]1CSSC[C@H](N)C(=O)NCC(=O)N[C@@H](CC(N)=O)C(=O)N[C@@H](CC(C)C)C(=O)N[C@@H](CO)C(=O)N[C@@H]([C@@H](C)O)C(=O)N1)[C@@H](C)O)[C@@H](C)O)[C@@H](C)O)[C@@H](C)O)C(=O)NCC(=O)N[C@H](C(=O)NCC(=O)N[C@@H](C)C(=O)N1CCC[C@H]1C(N)=O)C(C)C [hCT] | 58 ± 6% | 52 ± 5% | 58 ± 6% | 93 ± 8% | 100 ± 3%
2 | 5.01 nM | 2 nM | 4.07 nM | 91 ± 10% | 6.92 nM | 1.38 nM | 100 ± 3% | CSCC[C@H](NC(=O)CNC(=O)[C@H](CO)NC(=O)[C@H](Cc1ccccc1)NC(=O)[C@H](CCCNC(=N)N)NC(=O)[C@H](Cc1c[nH]cn1)NC(=O)[C@H](Cc1ccccc1)NC(=O)[C@H](CC(N)=O)NC(=O)[C@H](CC(N)=O)NC(=O)[C@H](CC(C)C)NC(=O)[C@H](CC(N)=O)NC(=O)[C@H](CCCNC(=N)N)NC(=O)[C@H](Cc1c[nH]c2ccccc12)NC(=O)[C@H](Cc1ccc(O)cc1)NC(=O)[C@H](C)NC(=O)[C@H](CO)NC(=O)[C@H](CC(C)C)NC(=O)[C@@H](NC(=O)[C@@H]1CSSC[C@H](N)C(=O)N[C@@H](CO)C(=O)N[C@@H](CC(N)=O)C(=O)N[C@@H](CC(C)C)C(=O)N[C@@H](CO)C(=O)N[C@@H]([C@@H](C)O)C(=O)N1)C(C)C)C(=O)NCC(=O)N[C@@H](Cc1ccccc1)C(=O)NCC(=O)N1CCC[C@H]1C(=O)N[C@@H](CCC(=O)O)C(=O)N[C@H](C(=O)N1CCC[C@H]1C(N)=O)[C@@H](C)O [pCT] (H-CSNLSTCVLSAYWRNLNNFHRFSGMGFGPETP-NH2; disulfide 1-7) | 112 ± 13% | 68 ± 5% |  | 93 ± 6% | 
3 |  |  |  |  |  |  |  | CC(C)C[C@H](NC(=O)[C@H](CCCCN)NC(=O)CNC(=O)[C@H](CC(C)C)NC(=O)[C@@H](NC(=O)[C@@H]1CSSC[C@H](N)C(=O)N[C@@H](CO)C(=O)N[C@@H](CC(N)=O)C(=O)N[C@@H](CC(C)C)C(=O)N[C@@H](CO)C(=O)N[C@@H]([C@@H](C)O)C(=O)N1)C(C)C)C(=O)N[C@@H](CO)C(=O)N[C@@H](CCC(N)=O)C(=O)N[C@@H](CCC(=O)O)C(=O)N[C@@H](CC(C)C)C(=O)N[C@@H](Cc1c[nH]cn1)C(=O)N[C@@H](CCCCN)C(=O)N[C@@H](CC(C)C)C(=O)N[C@@H](CCC(N)=O)C(=O)N[C@H](C(=O)N[C@@H](Cc1ccc(O)cc1)C(=O)N1CCC[C@H]1C(=O)N[C@@H](CCCNC(=N)N)C(=O)N[C@H](C(=O)N[C@@H](CC(N)=O)C(=O)N[C@H](C(=O)NCC(=O)N[C@@H](CO)C(=O)NCC(=O)N[C@H](C(=O)N1CCC[C@H]1C(N)=O)[C@@H](C)O)[C@@H](C)O)[C@@H](C)O)[C@@H](C)O [sCT] | 114 ± 6% | 69 ± 7% | 66 ± 5% | 87 ± 6% | 100 ± 3%
